Results reported in ChEMBL document CHEMBL4732135, “Structural and mechanistic insights into the inhibition of amyloid-β aggregation by Aβ fragment derived synthetic peptides” (Eur J Med Chem, 2021).
Activity calls are given as the source filed them. The rule behind the calls is not given here. Square brackets hold non-standard residues; d marks the D form. Peptide text beside a SMILES is read from it. 1Nal = N[C@@H](Cc1cccc2ccccc12)C(=O)O; NMeF = CN[C@@H](Cc1ccccc1)C(=O)O; NMeI = CC[C@H](C)[C@H](NC)C(=O)O; Tle = CC(C)(C)[C@H](N)C(=O)O; Abu = CC[C@H](N)C(=O)O

Tests used:
Cortical neurone [1] = experiment: Neuroprotective activity against amyloid beta 42-induced toxicity in rat primary cortical neurons at 10 uM; format: functional, cell-based
[2] = Effective permeability of compound in pH 8 PBS buffer by PAMPA-BBB assay; format: ADME
[3] = target: Amyloid-beta precursor protein (Homo sapiens) (UniProt P05067); experiment: Inhibition of amyloid beta (1 to 42) (unknown origin) assessed as reduction in peptide aggregation at 2 uM measured after 24 hrs by thioflavin-T fluorescence assay relative to control
PC-12 [4] = experiment: Neuroprotective activity against amyloid beta 42-induced toxicity in rat PC-12 cells assessed as cell viability at 2 uM measured after 6 hrs by MTT assay (reference value: 74.05%); format: functional; conditions: read-out: Activity
[5] = target: Amyloid-beta precursor protein (Homo sapiens) (UniProt P05067); experiment: Inhibition of amyloid beta (1 to 42) (unknown origin) assessed as reduction in peptide aggregation at 4 uM measured after 24 hrs by thioflavin-T fluorescence assay relative to control
[6] = target: Amyloid-beta precursor protein (Homo sapiens) (UniProt P05067); experiment: Inhibition of amyloid beta (1 to 42) (unknown origin) assessed as reduction in peptide aggregation at 10 uM measured after 24 hrs by thioflavin-T fluorescence assay relative to control
PC-12 [7] = experiment: Neuroprotective activity against amyloid beta 42-induced toxicity in rat PC-12 cells assessed as cell viability at 10 uM measured after 6 hrs by MTT assay (reference value: 74.05%); format: functional; conditions: read-out: Activity
PC-12 [8] = experiment: Neuroprotective activity against amyloid beta 42-induced toxicity in rat PC-12 cells assessed as cell viability at 4 uM measured after 6 hrs by MTT assay (reference value: 74.05%); format: functional; conditions: read-out: Activity
Cortical neurone [9] = experiment: Cytotoxicity against rat primary cortical neuron assessed as reduction in cell viability at 20 uM measured after 6 hrs by MTT assay; format: cell-based
PC-12 [10] = experiment: Cytotoxicity against rat PC-12 cells assessed as reduction in cell viability at 20 uM measured after 6 hrs by MTT assay; format: cell-based; conditions: pc-12, 6 h
[11] = target: Amyloid-beta precursor protein (Homo sapiens) (UniProt P05067); experiment: Binding affinity to amyloid beta (1 to 42) (unknown origin) assessed as absence of fibrillar assembly at 10 uM measured after 24 hrs by HR-TEM analysis
[12] = target: Amyloid-beta precursor protein (Homo sapiens) (UniProt P05067); experiment: Binding affinity to amyloid beta (1 to 42) (unknown origin) assessed as absence of fibrillar assembly at 10 uM measured after 24 hrs by STEM analysis
[13] = target: Amyloid-beta precursor protein (Homo sapiens) (UniProt P05067); experiment: Inhibition of amyloid beta (1 to 42) (unknown origin) aggregation assessed as protein with random coil conformation at 10 uM measured after 24 hrs by circular dichroism analysis (reference value: 5%); set-up: scale not given: the % may be the effect or the level left
[14] = target: Amyloid-beta precursor protein (Homo sapiens) (UniProt P05067); experiment: Inhibition of amyloid beta (1 to 42) (unknown origin) aggregation assessed as protein with turn conformation at 10 uM measured after 24 hrs by circular dichroism analysis (reference value: 11.6%); set-up: scale not given: the % may be the effect or the level left
[15] = target: Amyloid-beta precursor protein (Homo sapiens) (UniProt P05067); experiment: Inhibition of amyloid beta (1 to 42) (unknown origin) aggregation assessed as protein with beta sheet conformation at 10 uM measured after 24 hrs by circular dichroism analysis (reference value: 66.4%); set-up: scale not given: the % may be the effect or the level left
[16] = target: Amyloid-beta precursor protein (Homo sapiens) (UniProt P05067); experiment: Inhibition of amyloid beta (1 to 42) (unknown origin) assessed as reduction in peptide aggregation at 0.5 uM measured after 24 hrs by thioflavin-T fluorescence assay relative to control
[17] = target: Amyloid-beta precursor protein (Homo sapiens) (UniProt P05067); experiment: Inhibition of amyloid beta (1 to 42) (unknown origin) aggregation assessed as relative fluorescence unit at 4 uM measured after 24 hrs by thioflavin-T fluorescence assay (reference value: 100%)
PC-12 [18] = experiment: Neuroprotective activity against amyloid beta 42-induced toxicity in rat PC-12 cells assessed as cell viability at 0.1 uM measured after 6 hrs by MTT assay (reference value: 73.8%); format: functional; conditions: read-out: Activity
[19] = target: Amyloid-beta precursor protein (Homo sapiens) (UniProt P05067); experiment: Inhibition of amyloid beta (1 to 42) (unknown origin) aggregation assessed as relative fluorescence unit at 10 uM measured after 24 hrs by thioflavin-T fluorescence assay (reference value: 100%)
[20] = target: Amyloid-beta precursor protein (Homo sapiens) (UniProt P05067); experiment: Inhibition of amyloid beta (1 to 42) (unknown origin) aggregation assessed as relative fluorescence unit at 2 uM measured after 24 hrs by thioflavin-T fluorescence assay (reference value: 100%)
PC-12 [21] = experiment: Neuroprotective activity against amyloid beta 42-induced toxicity in rat PC-12 cells assessed as cell viability at 1 uM measured after 6 hrs by MTT assay (reference value: 73.8%); format: functional; conditions: read-out: Activity
[22] = target: Amyloid-beta precursor protein (Homo sapiens) (UniProt P05067); experiment: Inhibition of amyloid beta (1 to 42) (unknown origin) assessed as reduction in peptide aggregation at 1 uM measured after 24 hrs by thioflavin-T fluorescence assay relative to control
[23] = target: Amyloid-beta precursor protein (Homo sapiens) (UniProt P05067); experiment: Inhibition of amyloid beta (1 to 42) (unknown origin) assessed as reduction in peptide aggregation at 0.1 uM measured after 24 hrs by thioflavin-T fluorescence assay relative to control
PC-12 [24] = experiment: Neuroprotective activity against amyloid beta 42-induced toxicity in rat PC-12 cells assessed as cell viability at 0.5 uM measured after 6 hrs by MTT assay (reference value: 73.8%); format: functional; conditions: read-out: Activity

Chain of Amyloid-beta precursor protein (Homo sapiens) (P05067 whole entry): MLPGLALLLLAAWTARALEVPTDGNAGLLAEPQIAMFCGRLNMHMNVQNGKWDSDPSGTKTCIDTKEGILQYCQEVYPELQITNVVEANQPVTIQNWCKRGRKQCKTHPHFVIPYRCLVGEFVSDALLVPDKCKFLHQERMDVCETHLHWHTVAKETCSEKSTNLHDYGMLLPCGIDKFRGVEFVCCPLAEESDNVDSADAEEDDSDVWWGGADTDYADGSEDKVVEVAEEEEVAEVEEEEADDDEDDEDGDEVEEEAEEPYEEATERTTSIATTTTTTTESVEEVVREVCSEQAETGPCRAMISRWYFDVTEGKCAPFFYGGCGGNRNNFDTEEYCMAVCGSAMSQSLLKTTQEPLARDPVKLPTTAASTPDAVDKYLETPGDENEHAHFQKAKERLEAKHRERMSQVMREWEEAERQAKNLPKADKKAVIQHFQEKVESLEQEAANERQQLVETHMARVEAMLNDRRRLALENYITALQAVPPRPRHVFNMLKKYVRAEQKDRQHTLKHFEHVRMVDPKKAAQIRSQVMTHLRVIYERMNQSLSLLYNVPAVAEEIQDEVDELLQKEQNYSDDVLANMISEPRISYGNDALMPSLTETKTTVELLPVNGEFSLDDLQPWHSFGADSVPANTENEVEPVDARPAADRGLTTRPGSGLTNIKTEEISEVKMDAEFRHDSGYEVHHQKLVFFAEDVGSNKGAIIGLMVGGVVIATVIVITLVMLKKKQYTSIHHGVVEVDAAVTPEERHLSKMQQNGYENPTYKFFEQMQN

| SMILES | Peff [2] | inhibition [3] | viability at 2 µM (PC-12 [4]) | inhibition [5] | inhibition [6] | viability at 10 µM (PC-12 [7]) | viability at 4 µM (PC-12 [8]) | Activity (Cortical neurone [9]) | Activity (PC-12 [10]) | also measured |
| --- | --- | --- | --- | --- | --- | --- | --- | --- | --- | --- |
| Oc1ccc(/C=C/c2cc(O)cc(O)c2)cc1 |  |  |  |  |  |  |  |  |  | Activity (Cortical neurone [1]): Active |
| CC[C@H](C)[C@H](NC(=O)[C@@H](NC(=O)[C@@H](N)C(C)C)C(C)C)C(=O)N[C@@H](C)C(=O)O (H-VVIA-OH) | Permeable | 33.9% | 78.9% | 60.6% | 66.2% | 93.6% | 90.5% |  |  |  |
| CC[C@H](C)[C@@H](C(=O)N[C@@H](C)C(=O)O)N(C)C(=O)[C@@H](NC(=O)[C@@H](N)C(C)C)C(C)C (H-VV[NMeI]A-OH) | Permeable | 80.6% | 88.4% | 83.4% | 100% | 100% | 92.9% |  |  |  |
| CC[C@H](C)[C@H](NC(=O)[C@@H](NC(=O)[C@@H](N)C(C)C)C(C)C)C(=O)N[C@@H](CC(=O)O)C(=O)O (H-VVID-OH) |  | 82% | 100% | 100% | 100% | 95.8% | 98.7% | Non-Toxic | Non-Toxic |  |
| CC[C@H](C)[C@H](NC(=O)[C@@H](NC(=O)[C@@H](N)Cc1cccc2ccccc12)C(C)C)C(=O)N[C@@H](C)C(=O)O (H-[1Nal]VIA-OH) |  | 34% | 77% | 23.8% | 29.1% | 70.6% | 73.2% |  |  | Activity [11]: inactive; Activity [12]: inactive; Activity [13]: 31.6%; Activity [14]: 45.3%; Activity [15]: 18.7% |
| COc1cc(/C=C/C(=O)CC(=O)/C=C/c2ccc(O)c(OC)c2)ccc1O |  |  |  |  |  |  |  |  |  | Activity (Cortical neurone [1]): Active |
| CC[C@H](NC(=O)[C@@H](N)CC)C(=O)N[C@H](C(=O)N[C@@H](C)C(=O)O)[C@@H](C)CC (H-[Abu][Abu]IA-OH) |  | 97.7% | 100% | 90.2% | 88.7% | 92.1% | 100% | Non-Toxic | Non-Toxic |  |
| CC[C@H](C)[C@H](NC(=O)[C@H](Cc1ccccc1)NC(=O)[C@@H](N)Cc1ccccc1)C(=O)N[C@@H](C)C(=O)O (H-FFIA-OH) | Permeable | 92.2% | 98% | 97.2% | 100% | 83.8% | 100% | Non-Toxic | Non-Toxic |  |
| CC[C@H](C)[C@H](NC(=O)[C@@H](NC(=O)[C@H](Cc1ccccc1)NC)C(C)C)C(=O)N[C@@H](C)C(=O)O (H-[NMeF]VIA-OH) | Permeable | 84.8% | 86.1% | 94.3% | 100% | 100% | 81% |  |  |  |
| CC[C@H](C)[C@H](NC(=O)[C@@H](NC(=O)[C@@H](N)C(C)(C)C)C(C)(C)C)C(=O)N[C@@H](C)C(=O)O (H-[Tle][Tle]IA-OH) |  | 100% | 100% | 97.4% | 95.3% | 100% | 100% | Non-Toxic | Non-Toxic | inhibition [16]: 41.3%; RFU [17]: 54.5%; viability at 0.1 µM (PC-12 [18]): 91.2%; RFU [19]: 55.5%; RFU [20]: 51.2%; viability at 1 µM (PC-12 [21]): 97.6%; inhibition [22]: 51.8%; inhibition [23]: 34.4%; viability at 0.5 µM (PC-12 [24]): 94.5% |
